pIC50: −log10 of the molar value.
Key:
human GSK3 beta = biological target: T1, human GSK3 beta (Homo sapiens, UniProt P49841); experiment: GSK3 beta enzyme assay (ADP-Glo); assay type: biochemical; details: ATP 25 μM, read-out: GSK3b IC50
T1 construct: Recombinant full-length human GSK3 beta (expressed in Sf9 insect cells with an N-terminal His tag); His (N); purchased SignalChem G09-10H; host or cells: Sf9 insect cells
Experimental: 1. GSK3 Beta Enzyme Assay
The ability of compounds to inhibit human GSK3 beta kinase activities was determined using a commercially available ADP-Glo™ Kinase Assay kit (Promega, Cat #V9102) according to the manufacturer's protocol. The ADP-Glo™ Kinase Assay is a luminescent ADP detection assay that provides a universal, homogeneous, high-throughput screening method to measure kinase activity by quantifying the amount of ADP produced during a kinase reaction. The ADP-Glo™ Kinase Assay can be used to monitor the activity of virtually any ADP-generating enzymes (e.g., kinases or ATPases).
Recombinant full-length human GSK3 beta (expressed in Sf9 insect cells with an N-terminal His tag) was purchased from SignalChem (Cat #G09-10H). The GSK3 substrate peptide (sequence: […](pS)EDEEE) was purchased from SignalChem (Cat #G50-58). This assay, run in a 384-well plate format, is a generic method for measuring kinase activities using an ADP-Glo Kinase Assay Kit. The basic assay procedure involves two steps: (1) Enzymatic step: inhibitors are incubated with the kinase and then ATP (included in the ADP-Glo Kinase Assay Kit) and the GSK3 substrate peptide are added to start the enzymatic reaction; (2) Detection step: after the kinase reaction, first ADP-Glo™ Reagent is added to terminate the kinase reaction and deplete the remaining ATP. Second, the Kinase Detection Reagent is added to simultaneously convert ADP to ATP and allow the newly synthesized ATP to be measured using a luciferase/luciferin reaction. The light generated is measured using a luminometer.
(§1) Briefly, GSK3 beta (4 nM) in the enzymatic buffer solutions (40 mM Tris, pH 7.5, 20 mM MgCl2, 0.1 mg/ml BSA, 50 μM DTT) were mixed with various concentrations of inhibitors (dissolved in 100% DMSO). These solutions were incubated for 30 minutes at 25° C., and subsequently a mixture of substrate peptide and ATP was added with the final peptide and ATP concentrations at 13 μM and 25 μM, respectively. The final reaction mixture of enzyme-substrate-ATP-compound was incubated for 60 minutes at 25° C.
(§2) Afterwards ADP-Glo™ Reagent was added and the mixture was incubated at 25° C. for 60 minutes. Then Kinase Detection Reagent was added and the final mixture was incubated at 25° C. for 60 minutes. The luminescence signal of the final solution was measured on an Envision instrument (PerkinElmer). The percent (%) inhibition at each concentration of a compound is calculated relative to the luminescence signal in the Max and Min control wells contained within each assay plate. […] The concentrations and percent inhibition values for a test compound are plotted and the concentration of the compound required to achieve 50% inhibition (IC50) is determined with a four-parameter logistic dose response equation.

human CLK1 = biological target: T2, human CLK1 (Homo sapiens, UniProt P49759); experiment: CLK1 enzyme assay (ADP-Glo); assay type: biochemical; details: ADP-Glo, ATP 10 μM; read-out: CLK1 IC50
T2 construct: Recombinant human CLK1 (129-end); GST (N); purchased SignalChem C57-11G; host or cells: Sf9 insect cells
Experimental: The ability of compounds to inhibit human CLK1 kinase activities was determined using a commercially available ADP-Glo™ Kinase Assay kit (Promega, Cat #V9102) according to the manufacturer's protocol.
Recombinant human CLK1 (129-end) (expressed in Sf9 insect cells with an N-terminal GST tag) was purchased from SignalChem (Cat #C57-11G). Recombinant full length human MBP (expressed in E. Coli cells with an N-terminal GST tag.) was purchased from SignalChem (Cat #M42-54G). This assay, run in a 384-well plate format, is a generic method for measuring kinase activities using an ADP-Glo Kinase Assay Kit. The basic assay procedure involves two steps: (1) Enzymatic step: inhibitors are incubated with the kinase and then ATP (included in the ADP-Glo Kinase Assay Kit) and the MBP protein are added to start the enzymatic reaction; (2) Detection step: after the kinase reaction, first ADP-Glo™ Reagent is added to terminate the kinase reaction and deplete the remaining ATP. Second, the Kinase Detection Reagent is added to simultaneously convert ADP to ATP and allow the newly synthesized ATP to be measured using a luciferase/luciferin reaction. The light generated is measured using a luminometer.
as §1, with “Briefly, CLK1 (16” for “Briefly, GSK3 beta (4”, “at 2” for “at 13”, “and 10” for “and 25”
as §2

T2 sequence (P49759 129-484 limits assumed): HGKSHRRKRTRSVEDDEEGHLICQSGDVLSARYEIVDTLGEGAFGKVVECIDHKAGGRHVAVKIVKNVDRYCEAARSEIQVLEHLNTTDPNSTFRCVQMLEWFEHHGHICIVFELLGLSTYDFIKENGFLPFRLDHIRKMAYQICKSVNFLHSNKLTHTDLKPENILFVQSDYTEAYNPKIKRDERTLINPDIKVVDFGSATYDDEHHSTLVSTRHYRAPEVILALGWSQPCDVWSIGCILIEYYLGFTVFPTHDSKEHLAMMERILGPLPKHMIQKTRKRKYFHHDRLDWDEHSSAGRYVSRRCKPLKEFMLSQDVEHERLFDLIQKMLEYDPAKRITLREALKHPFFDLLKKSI
T1 sequence (P49841 whole entry): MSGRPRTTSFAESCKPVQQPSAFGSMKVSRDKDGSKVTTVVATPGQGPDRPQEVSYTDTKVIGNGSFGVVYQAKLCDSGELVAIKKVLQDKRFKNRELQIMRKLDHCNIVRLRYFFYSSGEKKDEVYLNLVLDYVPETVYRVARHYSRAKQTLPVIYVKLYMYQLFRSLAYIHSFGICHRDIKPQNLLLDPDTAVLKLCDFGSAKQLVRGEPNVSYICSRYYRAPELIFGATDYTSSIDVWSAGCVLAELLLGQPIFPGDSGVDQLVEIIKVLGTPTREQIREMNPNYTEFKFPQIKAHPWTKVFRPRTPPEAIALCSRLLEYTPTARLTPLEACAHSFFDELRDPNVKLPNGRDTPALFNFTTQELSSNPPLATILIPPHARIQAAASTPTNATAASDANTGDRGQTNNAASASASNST

Structure (SMILES) | pIC50 (human GSK3 beta) | pIC50 (human CLK1)
O=C1NC(Nc2ccccc2)=N/C1=C\c1ccc2nccnc2c1 [Example 16, (Z)-2-(phenylamino)-5-(quinoxalin-6-ylmethylene)-3,5-dihydro-4H-imidazol-4-one] | 5.00 to 6.00 | > 7.00
CN(C1=N/C(=C\c2ccc3c(c2)OC(F)(F)O3)C(=O)N1)c1ccccc1 [Example 17, (Z)-5-((2,2-difluorobenzo[d][1,3]dioxol-5-yl)methylene)-2-(methyl(phenyl)amino)-3,5-dihydro-4H-imidazol-4-one] | < 5.00 | < 5.00
CN(C1=N/C(=C\c2ccc3c(c2)OCO3)C(=O)N1)c1cccnc1 [Example 18, (Z)-5-(benzo[d][1,3]dioxol-5-ylmethylene)-2-(methyl(pyridin-3-yl)amino)-3,5-dihydro-4H-imidazol-4-one] | < 5.00 | 6.00 to 7.00
CN(CC1CC1)C1=N/C(=C\c2ccc3c(c2)OCCO3)C(=O)N1 [Example 19, (Z)-2-((cyclopropylmethyl)(methyl)amino)-5-((2,3-dihydrobenzo[b][1,4]dioxin-6-yl)methylene)-3,5-di hydro-4H-imidazol-4-one] | < 5.00 | 5.00 to 6.00
CN(CCN1CCOCC1)C1=N/C(=C\c2ccc3c(c2)OCO3)C(=O)N1 [Example 20, (Z)-5-(benzo[d][1,3]dioxol-5-ylmethylene)-2-(methyl(2-morpholinoethyl)amino)-3,5-dihydro-4H-imidazol-4-one] | 5.00 to 6.00 | 6.00 to 7.00
COc1ccccc1N(C)C1=N/C(=C\c2ccc3c(c2)OCO3)C(=O)N1 [Example 21, (Z)-5-(benzo[d][1,3]dioxol-5-ylmethylene)-2-((2-methoxyphenyl)(methyl)amino)-3,5-dihydro-4H-imidazol-4-one] | < 5.00 | 5.00 to 6.00
O=C1NC(N(Cc2ccccc2)c2ccccc2)=N/C1=C\c1ccc2c(c1)OCO2 [Example 22, (Z)-5-(benzo[d][1,3]dioxol-5-ylmethylene)-2-(benzyl(phenyl)amino)-3,5-dihydro-4H-imidazol-4-one] | < 5.00 | 5.00 to 6.00
CN(Cc1ccccc1)C1=N/C(=C\c2ccc3c(c2)OCO3)C(=O)N1 [Example 23, (Z)-5-(benzo[d][1,3]dioxol-5-ylmethylene)-2-(benzyl(methyl)amino)-3,5-dihydro-4H-imidazol-4-one] | < 5.00 | 6.00 to 7.00
CN(C1=N/C(=C\c2ccc3ncsc3c2)C(=O)N1)c1ccc(Cl)cc1 [Example 24, (Z)-5-(benzo[d]thiazol-6-ylmethylene)-2-((4-chlorophenyl)(methyl)amino)-3,5-dihydro-4H-imidazol-4-one] | < 5.00 | 6.00 to 7.00
COc1ccc(NC2=N/C(=C\c3ccc4ncsc4c3)C(=O)N2)cc1 [Example 25, (Z)-5-(benzo[d]thiazol-6-ylmethylene)-2-((4-methoxyphenyl)amino)-3,5-dihydro-4H-imidazol-4-one] | < 5.00 | > 7.00
O=C1NC(Nc2ccccc2)=N/C1=C\c1ccc2[nH]cnc2c1 [Example 26, (Z)-5-((1H-benzo[d]imidazol-5-yl)methylene)-2-(phenylamino)-3,5-dihydro-4H-imidazol-4-one] | 6.00 to 7.00 | > 7.00
O=C(O)CCN(C1=N/C(=C\c2ccc3c(c2)OCO3)C(=O)N1)c1ccccc1 [Example 27, (Z)-3-((4-(benzo[d][1,3]dioxol-5-ylmethylene)-5-oxo-4,5-dihydro-1H-imidazol-2-yl)(phenyl)amino)propanoic acid] | < 5.00 | 5.00 to 6.00
CN(Cc1ccccc1)C1=N/C(=C\c2ccc3ncsc3c2)C(=O)N1 [Example 28, (Z)-5-(benzo[d]thiazol-6-ylmethylene)-2-(benzyl(methyl)amino)-3,5-dihydro-4H-imidazol-4-one] | 5.00 to 6.00 | 6.00 to 7.00
O=C1NC(NCCN2CCOCC2)=N/C1=C\c1ccc2ncsc2c1 [Example 29, (Z)-5-(benzo[d]thiazol-6-ylmethylene)-2-((2-morpholinoethyl)amino)-3,5-dihydro-4H-imidazol-4-one] | 5.00 to 6.00 | 6.00 to 7.00
CN(C1=N/C(=C\c2ccc3[nH]cnc3c2)C(=O)N1)c1ccccc1 [Example 30, (Z)-5-((1H-benzo[d]imidazol-5-yl)methylene)-2-(methyl(phenyl)amino)-3,5-dihydro-4H-imidazol-4-one] | < 5.00 | 6.00 to 7.00
CN(CCN1CCOCC1)C1=N/C(=C\c2ccc3ncsc3c2)C(=O)N1 [Example 32, (Z)-5-(benzo[d]thiazol-6-ylmethylene)-2-(methyl(2-morpholinoethyl)amino)-3,5-dihydro-4H-imidazol-4-one] | 5.00 to 6.00 | 6.00 to 7.00
CN(CC1CC1)C1=N/C(=C\c2ccc3ncsc3c2)C(=O)N1 [Example 33, (Z)-5-(benzo[d]thiazol-6-ylmethylene)-2-((cyclopropylmethyl)(methyl)amino)-3,5-dihydro-4H-imidazol-4-one] | < 5.00 | 6.00 to 7.00
O=C1NC(N(Cc2ccccc2)c2ccccc2)=N/C1=C\c1ccc2[nH]cnc2c1 [Example 35, (Z)-5-((1H-benzo[d]imidazol-5-yl)methylene)-2-(benzyl(phenyl)amino)-3,5-dihydro-4H-imidazol-4-one] | < 5.00 | 6.00 to 7.00
NC(=O)CCN(C1=N/C(=C\c2ccc3c(c2)OCO3)C(=O)N1)c1ccccc1 [Example 36, (Z)-3-((4-(benzo[d][1,3]dioxol-5-ylmethylene)-5-oxo-4,5-dihydro-1H-imidazol-2-yl)(phenyl)amino)propanamide] | < 5.00 | 6.00 to 7.00
CN(C1=N/C(=C\c2ccc3c(c2)OCO3)C(=O)N1)c1ccc(N)cc1 [Example 37, (Z)-2-((4-aminophenyl)(methyl)amino)-5-(benzo[d][1,3]dioxol-5-ylmethylene)-3,5-dihydro-4H-imidazol-4-one] | < 5.00 | 5.00 to 6.00
COc1ccc(N(C)C2=N/C(=C\c3ccc4ncsc4c3)C(=O)N2)cc1 [Example 38, (Z)-5-(benzo[d]thiazol-6-ylmethylene)-2-((4-methoxyphenyl)(methyl)amino)-3,5-dihydro-4H-imidazol-4-one] | < 5.00 | 6.00 to 7.00
O=C1NC(N(CC2CC2)c2ccccc2)=N/C1=C\c1ccc2c(c1)OCCO2 [Example 39, (Z)-2-((cyclopropylmethyl)(phenyl)amino)-5-((2,3-dihydrobenzo[b][1,4]dioxin-6-yl)methylene)-3,5-dihydro-4H-imidazol-4-one] | < 5.00 | < 5.00
O=C1NC(Nc2ccc(Cl)cc2)=N/C1=C\c1ccc2ncsc2c1 [Example 40, (Z)-5-(benzo[d]thiazol-6-ylmethylene)-2-((4-chlorophenyl)amino)-3,5-dihydro-4H-imidazol-4-one] | < 5.00 | > 7.00

Source: patent US12643887B2, “Heterocyclic derivatives with cardiomyocyte proliferation activity for treatment of heart diseases” (Tongji University, priority 2019, dated 2026)
